Positions of bridges follow the written chain, without caps; N, C: chain ends. Residues, ends and D or L forms follow the SMILES beside them. Chains are numbered I, II in the order given. *: point of attachment. Chenodeoxycholyl = C[C@H](CCC(=O)*)[C@H]1CC[C@H]2[C@@H]3[C@H](O)C[C@@H]4C[C@H](O)CC[C@]4(C)[C@H]3CC[C@]12C
Legend:
[1] = test system: 4T1, EL4, CT-26, B16 and E0771 tumor cell lines; test: Cell death by flow cytometry on five tumor cell lines; type: cell-based; conditions: 95 and 190 μM
Experimental: Apoptosis analysis was conducted by flow-cytometry. Briefly, target cells were first treated then washed. Treated cells were then re-suspended in Annexin-V staining buffer prior to staining with Annexin-V and propidium iodine (PI). Fifteen minutes later, cells were washed prior to analysis using BD FACS™ Diva on CANTOII™.

[2] = Stability testing (impurities by HPLC); type: physicochemical; conditions: dimer vs monomer
Description: GMP synthesis of the CDCA-C-SV40 monomer yielded a white powder and the results of initial stability testing is summarized below:
As shown above, two main impurities were detected by HPLC relating to the reactivity of the free thiol group of the CDCA-C-SV40 monomer, namely impurities resulting from oxidation of the thiol group (Impurity A) and the formation an intermolecular disulfide bond via the thiol groups of two CDCA-C-SV40 monomers, producing a (CDCA-C-SV40)2 dimer (Impurity B).
To attempt to improve stability, the synthesis protocol of CDCA-C-SV40 was modified to produce the conjugate directly in its dimerized form (Impurity B). […] At 25° C., total impurities rose only slightly from 1.6% at Day 0 to 2.1% after 3 months. At 40° C., total impurities rose from 1.6% at Day 0 to 1.7% after 5 days, 2.4% after 10 days, and to 3.7% after 30 days.

[3] = test system: JIMT-1 breast cancer cells; test: Cell cytotoxicity assay (PrestoBlue); type: cell-based
Experimental: 50 mg of CDCA-C-SV40 monomers (or other steroid acid-peptide monomers) were resuspended in 200-500 μL of DMSO. 10 eq of N,N-Diisopropylethylamine (DIPEA) was added to the mixture and incubated in a thermomixer at 37° C. with agitation (1000 rpm) overnight, enabling dimerization of the monomers via their N-terminal cysteine thiol groups to produce (CDCA-C-SV40)2 or other dimers. The samples were then analyzed by UPLC-MS to evaluate dimer formation efficiency. Cell toxicity was evaluated via a Cell Toxicity assay (PrestoBlue™).
In a T75 flask of confluent JIMT-1 cells (at least 75%), the culture medium was removed, and 2 mL of trypsin was then added and incubated at 37° C. for about 5 minutes or until the cells detached. The trypsin was inactivated by adding 10 mL of culture medium, the cells were centrifuged at 950 rpm for 5 minutes at 4° C., viable cells were visualized with trypan blue and counted using a hematocytometer. Cells were then plated in a 96-well plate at 5000 cells/well and incubated at 37° C. for 24 hours. Trastuzumab-(CDCA-C-SV40)2 or T-DM1-(CDCA-C-SV40)2 was then added to the cells and incubated for 72 hours at 37° C. […] Fluorescence (excitation: 535-560 nm, emission: 590-615 nm) was measured. The cells were further incubated for another 30 minutes, and a second fluorescence reading was taken.

## CC(C)[C@H](NC(=O)[C@H](CCCCN)NC(=O)[C@H](CCCNC(=N)N)NC(=O)[C@H](CCCCN)NC(=O)[C@H](CCCCN)NC(=O)[C@H](CCCCN)NC(=O)[C@@H]1CCCN1C(=O)CNC(=O)[C@H](Cc1ccc(O)cc1)NC(=O)CNC(=O)[C@H](CSSC[C@H](NC(=O)CC[C@@H](C)[C@H]1CC[C@H]2[C@@H]3[C@H](O)C[C@@H]4C[C@H](O)CC[C@]4(C)[C@H]3CC[C@]12C)C(=O)NCC(=O)N[C@@H](Cc1ccc(O)cc1)C(=O)NCC(=O)N1CCC[C@H]1C(=O)N[C@@H](CCCCN)C(=O)N[C@@H](CCCCN)C(=O)N[C@@H](CCCCN)C(=O)N[C@@H](CCCNC(=N)N)C(=O)N[C@@H](CCCCN)C(=O)N[C@H](C(=O)NCC(=O)NCC(=O)O)C(C)C)NC(=O)CC[C@@H](C)[C@H]1CC[C@H]2[C@@H]3[C@H](O)C[C@@H]4C[C@H](O)CC[C@]4(C)[C@H]3CC[C@]12C)C(=O)NCC(=O)NCC(=O)O [(CDCA-C-SV40)2] (I: Chenodeoxycholyl-CGYGPKKKRKVGG-OH / II: Chenodeoxycholyl-CGYGPKKKRKVGG-OH; disulfide I:1-II:1)
[1]
  cytotoxicity: potent cytotoxicity
[2]
  stability relative to corresponding monomer: markedly higher stability

## CC(C)[C@H](NC(=O)[C@H](CCCCN)NC(=O)CNC(=O)[C@H](Cc1ccc(O)cc1)NC(=O)CNC(=O)[C@H](CO)NC(=O)[C@H](CSSC[C@H](NC(=O)CC[C@@H](C)[C@H]1CC[C@H]2[C@@H]3[C@H](O)C[C@@H]4C[C@H](O)CC[C@]4(C)[C@H]3CC[C@]12C)C(=O)N[C@@H](CO)C(=O)NCC(=O)N[C@@H](Cc1ccc(O)cc1)C(=O)NCC(=O)N[C@@H](CCCCN)C(=O)N[C@H](C(=O)N[C@@H](CO)C(=O)N[C@@H](CCCNC(=N)N)C(=O)N[C@@H](CCCNC(=N)N)C(=O)NCC(=O)NCC(=O)N[C@@H](Cc1c[nH]cn1)C(=O)N[C@@H](CCC(N)=O)C(=O)N[C@@H](CC(N)=O)C(=O)N[C@@H](CO)C(=O)N[C@@H](Cc1ccc(O)cc1)C(=O)N[C@@H](CCCCN)C(=O)N1CCC[C@H]1C(=O)N[C@@H](Cc1ccc(O)cc1)C(=O)O)C(C)C)NC(=O)CC[C@@H](C)[C@H]1CC[C@H]2[C@@H]3[C@H](O)C[C@@H]4C[C@H](O)CC[C@]4(C)[C@H]3CC[C@]12C)C(=O)N[C@@H](CO)C(=O)N[C@@H](CCCNC(=N)N)C(=O)N[C@@H](CCCNC(=N)N)C(=O)NCC(=O)NCC(=O)N[C@@H](Cc1c[nH]cn1)C(=O)N[C@@H](CCC(N)=O)C(=O)N[C@@H](CC(N)=O)C(=O)N[C@@H](CO)C(=O)N[C@@H](Cc1ccc(O)cc1)C(=O)N[C@@H](CCCCN)C(=O)N1CCC[C@H]1C(=O)N[C@@H](Cc1ccc(O)cc1)C(=O)O [(CDCA-C-hnRNP D NLS)2] (I: Chenodeoxycholyl-CSGYGKVSRRGGHQNSYKPY-OH / II: Chenodeoxycholyl-CSGYGKVSRRGGHQNSYKPY-OH; disulfide I:1-II:1)
[3]
  cytotoxicity of dimerized version vs monomer: enhancement of cytotoxicity

Reference: patent US12233130B2, “Covalently-modified steroid acid-peptides having enhanced stability and/or biological activity” (DEFENCE THERAPEUTICS INC., priority 2022, dated 2025)
